{"source": "patent US6512166B1", "about": "“Combinations of fungal cell wall degrading enzyme and fungal cell membrane affecting compound” (priority 1991, dated 2003)", "key": {"[1]": {"tested_on": "Fusarium oxysporum strain FOP1", "assay": "Inhibition of spore germination, ELISA plate assay (Examples V-XIV, XVII)", "assay_type": "cell-based", "settings": "Table 29; concentration of miconazole for 50% inhibition, alone or with enzyme at its ED10 concentration", "protocol": "(§1) The concentration where fungal cell wall degrading enzyme individually provides a specified percentage fungal inhibition or where antifungal fungal cell membrane affecting compound individually provides a specific percentage fungal inhibition can be determined as follows: Assays are performed under sterile conditions. Equal volumes of spore suspensions, 3× potato dextrose broth, and the test solution or suspension in 5 mM Tris-HCl (pH 6.0) or 5 mM potassium phosphate buffer (pH 6.7) are mixed. The control is the same as the test solution except for the control the antifungal agent is omitted. The assay mixtures (total volume 45 or 30 μl) are incubated on flat-bottomed ELISA plates, each containing 96 wells, with 2,000 to 3,000 spores per well, at 25° C. After 22 to 30 hours, the plates are placed under an inverted microscope. The percentage of conidia germinating is determined as the percentage of the first 100 spores randomly found in a well. In addition, the lengths of 20 germ tubes are measured and averaged. All experiments are performed twice, with three replicates for each treatment. The inhibition values obtained in the two experiments are combined and averaged, and standard deviations are calculated from the 6 data points. The values obtained for the control are taken as 0% inhibition and all other values are divided by the values obtained for the control and multiplied by 100% to obtain percent inhibition. Determination of concentration corresponding to a particular percent inhibition is carried out by subjecting dose-response curves to regression analysis by using a binomial regression of the third order, with R^2 ranging between 0.95 and 0.99.\n(§2) Assays were carried out by the procedure described in the summary of the invention section. Dose response curves were obtained by probit analysis of data collected from two separate experiments with each experiment involving three treatment replicates.\n(§3) Dose response curves were determined for each antifungal fungal cell membrane affecting compound and for each fungal cell wall degrading enzyme singly. Then each fungal cell wall degrading enzyme at a concentration giving 10% inhibition when used alone was combined with increasing amounts of antifungal fungal cell membrane affecting compound. Then the concentration of antifungal fungal cell membrane affecting compound causing the ED50 for each combination was calculated by probit analysis of data collected from two experiments with three treatment replicates for each experiment. Assays for inhibition of spore germination were carried out as described in the summary of invention section above.\nThe relative level of synergism (RS below) for each combination was calculated by applying Limpel's formula: Ee=X+Y−(XY/100) as described in Richer, D. L, Pestic. Sci. 19, 309-315, 1987. In Limpel's formula, X and Y are the percentages of inhibition relative to each compound used alone and Ee is the expected effect for an additional (non-synergistic) effect. If the combination of the two agents produces an observed effect (Eo) greater than Ee, synergism exists, and as the difference between Eo and Ee increases, the level of synergism is greater. In this experiment, the X value (percentage inhibition by fungal cell wall degrading enzyme when used alone was chosen to be 10 (10% inhibition of spore germination when used alone) and the observed effect, Eo, was 50 (i.e., 50% inhibition of spore germination). The Y values were obtained from the determined concentrations of antifungal cell membrane affecting compound causing the ED50 for a combination and the dose response curves for the antifungal cell membrane affecting compound used alone—i.e., the Y value was the percent inhibition for the antifungal fungal cell membrane affecting compound when used alone for the concentration of antifungal fungal cell membrane affecting compound that was determined to cause the ED50 for the combination. Ee values were then calculated from Limpel's formula. […]"}, "[2]": {"tested_on": "B. cinerea strain 12", "assay": "Inhibition of spore germination, ELISA plate assay (Examples III-XVI, XVIII)", "assay_type": "cell-based, Botrytis cinerea", "settings": "Table 21; concentration of miconazole for 50% inhibition, alone or with enzyme at its ED10 concentration", "protocol": "as §1, §2\nEach of 8 antifungal fungal cell membrane affecting compounds were used in combination with each of 8 or 6 fungal cell wall degrading enzymes to provide 50% inhibition (ED50) of B. cinerea strain 12 spore germination. Each fungal cell wall degrading enzyme was used at a concentration giving 10% inhibition of spore germination when used alone in combination with an amount of antifungal fungal cell membrane affecting compound so the combination gave 50% inhibition of spore germination.\nas §3\nThe relative level of synergism (RS below) for each combination was calculated by applying Limpel's formula: Ee=X+Y−(XY/100) as described in Richer, D. L, Pestic. Sci. 19, 309-315, 1987. In Limpel's formula, X and Y are the percentages of inhibition relative to each compound used alone and Ee is the expected effect for an additional (non-synergistic) effect. If the combination of the two agents produces an observed effect (Eo) greater than Ee, synergism exists, and as the difference between Eo and Ee increases, the level of synergism is greater. […]"}, "[3]": {"tested_on": "Botrytis cinerea", "assay": "Inhibition of spore germination, Eppendorf tube assay (Examples I and II)", "assay_type": "cell-based", "settings": "for expected percent inhibition for an additive response (Limpel's formula) at 0.5 µg/mL: read-out: Ee, expected effect from an additive response according to Limpel's formula, percent inhibition; for ED50 of fungicide (dose effective for 50% inhibition): Table 9"}, "[4]": {"assay": "Solubility, guidance for forming solutions", "from_the_text": "Compositions for use in the systems herein are readily formulated by admixing the fungal cell wall degrading enzymes and the antifungal fungal cell membrane affecting compounds with non-toxic carriers appropriate for the particular use for a composition, e.g., agriculturally acceptable carriers for agricultural uses and pharmaceutically acceptable carriers for medicinal uses. They may be formulated as liquids (solutions or suspensions) or as solids. Since the fungal cell wall degrading enzymes need free water for activity, water must be present at the time of function. […] Water is a preferred vehicle where components are soluble in it. […] Organic solvents can also be used and may be required in some cases if a solution is desired. Guidance for forming solutions follows. […] Suspension can also be employed."}}, "note": "Like-named read-outs stand apart in the source and are kept apart here.", "data": [{"smiles": "Clc1ccc(COC(Cn2ccnc2)c2ccc(Cl)cc2Cl)c(Cl)c1", "note": "(stereo not drawn) [Miconazole, miconazole]", "values": [{"measurement": "ED50", "setting": "[1]", "result": "5.0 (4.5-5.5) ng ml^−1"}, {"measurement": "ED50", "setting": "[2]", "result": "3.0 (2-4) ng ml^−1"}, {"measurement": "inhibition at 0.5 µg/mL", "setting": "[3]; Botrytis cinerea, Table 4, enzyme 0 μg ml^−1 (fungicide alone), flusilazole 5 ng ml^−1, miconazole 0.5 μg ml^−1, read-out: % inhibition", "result": 19, "unit": "%"}, {"measurement": "inhibition at 0.5 µg/mL", "setting": "[3]; Botrytis cinerea, Table 5, endochitinase from G. virens strain 41 at 25 μg ml^−1, with flusilazole 5 ng ml^−1, miconazole 0.5 μg ml^−1 or none (enzyme alone), read-out: % inhibition", "result": 99, "unit": "%"}, {"measurement": "inhibition at 0.5 µg/mL", "setting": "[3]; Botrytis cinerea, Table 5, enzyme 0 μg ml^−1 (fungicide alone), flusilazole 5 ng ml^−1, miconazole 0.5 μg ml^−1, read-out: % inhibition", "result": 19, "unit": "%"}, {"measurement": "inhibition at 0.5 µg/mL", "setting": "[3]; Botrytis cinerea, Table 6, enzyme 0 μg ml^−1 (fungicide alone), flusilazole 5 ng ml^−1, miconazole 0.5 μg ml^−1, read-out: % inhibition", "result": 19, "unit": "%"}, {"measurement": "inhibition at 0.5 µg/mL", "setting": "[3]; Botrytis cinerea, Table 7, enzyme 0 μg ml^−1 (fungicide alone), flusilazole 5 ng ml^−1, miconazole 0.5 μg ml^−1, read-out: % inhibition", "result": 19, "unit": "%"}, {"measurement": "expected percent inhibition for an additive response (Limpel's formula) at 0.5 µg/mL", "setting": "[3]; Botrytis cinerea, with Chitob. (P1) 25 μg ml^−1, flusilazole 5 ng ml^−1, miconazole 0.5 μg ml^−1", "result": 27.9, "unit": "%"}, {"measurement": "inhibition at 0.5 µg/mL", "setting": "[3]; Botrytis cinerea, with Chitob. (P1) 25 μg ml^−1, flusilazole 5 ng ml^−1, miconazole 0.5 μg ml^−1, read-out: Io, percent inhibition observed", "result": 85, "unit": "%"}, {"measurement": "expected percent inhibition for an additive response (Limpel's formula) at 0.5 µg/mL", "setting": "[3]; Botrytis cinerea, with Endoc. (41) 25 pg ml^−1 (so in the source), flusilazole 5 ng ml^−1, miconazole 0.5 μg ml^−1", "result": 19, "unit": "%"}, {"measurement": "inhibition at 0.5 µg/mL", "setting": "[3]; Botrytis cinerea, with Endoc. (41) 25 pg ml^−1 (so in the source), flusilazole 5 ng ml^−1, miconazole 0.5 μg ml^−1, read-out: Io, percent inhibition observed", "result": 66, "unit": "%"}, {"measurement": "expected percent inhibition for an additive response (Limpel's formula) at 0.5 µg/mL", "setting": "[3]; Botrytis cinerea, with Endoc. (P1) 25 μg ml^−1, flusilazole 5 ng ml^−1, miconazole 0.5 μg ml^−1", "result": 42.5, "unit": "%"}, {"measurement": "inhibition at 0.5 µg/mL", "setting": "[3]; Botrytis cinerea, with Endoc. (P1) 25 μg ml^−1, flusilazole 5 ng ml^−1, miconazole 0.5 μg ml^−1, read-out: Io, percent inhibition observed", "result": 100, "unit": "%"}, {"measurement": "expected percent inhibition for an additive response (Limpel's formula) at 0.5 µg/mL", "setting": "[3]; Botrytis cinerea, with Glucan. (P1) 25 μg ml^−1, flusilazole 5 ng ml^−1, miconazole 0.5 μg ml^−1", "result": 23, "unit": "%"}, {"measurement": "inhibition at 0.5 µg/mL", "setting": "[3]; Botrytis cinerea, with Glucan. (P1) 25 μg ml^−1, flusilazole 5 ng ml^−1, miconazole 0.5 μg ml^−1, read-out: Io, percent inhibition observed", "result": 70, "unit": "%"}, {"measurement": "inhibition at 0.5 µg/mL", "setting": "[3]; Table 4, endochitinase from T. harzianum strain P1 at 75 μg ml^−1, with flusilazole 5 ng ml^−1, miconazole 0.5 μg ml^−1 or none (enzyme alone), read-out: % inhibition", "result": 100, "unit": "%"}, {"measurement": "inhibition at 0.5 µg/mL", "setting": "[3]; Table 6, chitobiosidase from T. harzianum strain P1 at 75 μg ml^−1, with flusilazole 5 ng ml^−1, miconazole 0.5 μg ml^−1 or none (enzyme alone), read-out: % inhibition", "result": 100, "unit": "%"}, {"measurement": "inhibition at 0.5 µg/mL", "setting": "[3]; Table 7, glucan 1,3-β-glucosidase from T. harzianum strain P1 at 100 μg ml^−1, with flusilazole 5 ng ml^−1, miconazole 0.5 μg ml^−1 or none (enzyme alone), read-out: % inhibition", "result": 100, "unit": "%"}, {"measurement": "ED50 of fungicide (dose effective for 50% inhibition)", "setting": "[3]; no endochitinase (0 μg ml^−1)", "result": 3.0, "unit": "µg/mL"}, {"measurement": "ED50 of fungicide (dose effective for 50% inhibition)", "setting": "[3]; with endochitinase from T. harzianum strain P1 at 10 μg ml^−1", "result": 0.06, "unit": "µg/mL"}, {"measurement": "ED50 of fungicide (dose effective for 50% inhibition)", "setting": "[3]; with endochitinase from T. harzianum strain P1 at 25 μg ml^−1", "result": 0.04, "unit": "µg/mL"}, {"measurement": "ED50 of fungicide", "setting": "[3]; Table 10, no chitobiosidase (0 μg ml^−1)", "result": 3.0, "unit": "µg/mL"}, {"measurement": "ED50 of fungicide", "setting": "[3]; Table 10, with chitobiosidase from T. harzianum strain P1 at 25 μg ml^−1", "result": 0.06, "unit": "µg/mL"}, {"measurement": "ED50 of fungicide", "setting": "[3]; Table 10, with chitobiosidase from T. harzianum strain P1 at 50 μg ml^−1", "result": 0.045, "unit": "µg/mL"}, {"measurement": "ED50 of fungicide", "setting": "[3]; Table 10, with chitobiosidase from T. harzianum strain P1 at 75 μg ml^−1", "result": 0.04, "unit": "µg/mL"}, {"measurement": "ED50 of fungicide", "setting": "[3]; Table 10, with chitobiosidase from T. harzianum strain P1 at 100 μg ml^−1", "result": 0.03, "unit": "µg/mL"}, {"measurement": "ED50 of fungicide", "setting": "[3]; Table 11, no glucosidase (0 μg ml^−1)", "result": 3.0, "unit": "µg/mL"}, {"measurement": "ED50 of fungicide", "setting": "[3]; Table 11, with glucan 1,3-β-glucosidase from T. harzianum strain P1 at 25 μg ml^−1", "result": 0.27, "unit": "µg/mL"}, {"measurement": "ED50 of fungicide", "setting": "[3]; Table 11, with glucan 1,3-β-glucosidase from T. harzianum strain P1 at 50 μg ml^−1", "result": 0.04, "unit": "µg/mL"}, {"measurement": "ED50 of fungicide", "setting": "[3]; Table 11, with glucan 1,3-β-glucosidase from T. harzianum strain P1 at 75 μg ml^−1", "result": 0.0018, "unit": "µg/mL"}, {"measurement": "ED50 of fungicide", "setting": "[3]; Table 12, no endochitinase (0 μg ml^−1)", "result": 3.0, "unit": "µg/mL"}, {"measurement": "ED50 of fungicide", "setting": "[3]; Table 12, with endochitinase from G. virens strain 41 at 25 μg ml^−1", "result": 0.092, "unit": "µg/mL"}, {"measurement": "ED50 of fungicide", "setting": "[3]; Table 12, with endochitinase from G. virens strain 41 at 50 μg ml^−1", "result": 0.06, "unit": "µg/mL"}, {"measurement": "ED50 of fungicide", "setting": "[3]; Table 12, with endochitinase from G. virens strain 41 at 75 μg ml^−1", "result": 0.04, "unit": "µg/mL"}, {"measurement": "ED50 of fungicide", "setting": "[3]; Table 12, with endochitinase from G. virens strain 41 at 100 μg ml^−1", "result": 0.025, "unit": "µg/mL"}, {"measurement": "solubility (solvent in which the substance dissolves)", "setting": "[4]", "result": "dissolves in 50% (v:v) ethanol"}]}]}
